Laboratory results reported in US11578074B2, “Nitrogenous heterocyclic compound, preparation method, intermediate, composition, and application” (SHANGHAI PHARMACEUTICALS HOLDING CO., LTD., priority 2017, dated 2023).
Like-named read-outs stand apart in the source and are kept apart here.

Columns and labels:
CYP3A4 = biological target: T1, CYP3A4 (Homo sapiens, UniProt P08684); assay: Direct inhibition (DI) of CYP3A4 in human liver microsomes; assay type: in vitro ADME; conditions: human liver microsomes 0.2 mg/mL, 10 μM compound
T1 construct: A system of 100 μL human liver microsomes; from tissue; host or cells: human liver microsomes
T1 sequence (P08684 whole entry): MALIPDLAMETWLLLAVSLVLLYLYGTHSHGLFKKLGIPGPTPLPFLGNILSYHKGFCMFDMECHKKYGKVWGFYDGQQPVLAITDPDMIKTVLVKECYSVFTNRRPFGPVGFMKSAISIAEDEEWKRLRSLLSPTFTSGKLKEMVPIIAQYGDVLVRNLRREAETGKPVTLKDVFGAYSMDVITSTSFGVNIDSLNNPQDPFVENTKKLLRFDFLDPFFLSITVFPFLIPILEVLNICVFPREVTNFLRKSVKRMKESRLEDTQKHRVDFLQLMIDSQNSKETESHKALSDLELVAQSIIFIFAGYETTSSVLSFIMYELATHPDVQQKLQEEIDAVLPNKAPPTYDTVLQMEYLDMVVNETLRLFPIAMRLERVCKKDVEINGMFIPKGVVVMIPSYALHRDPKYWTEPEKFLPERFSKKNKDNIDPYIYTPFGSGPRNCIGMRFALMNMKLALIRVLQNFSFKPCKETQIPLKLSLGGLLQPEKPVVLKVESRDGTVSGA
Procedure, shortened: (§1)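 Pooled human liver microsomes (0.2 mg/mL) with 1 mM NADPH and 10 μM test compound were incubated for 20 min with a mixed probe-substrate cocktail (midazolam 10 μM, testosterone 100 μM, dextromethorphan 10 μM, diclofenac 20 μM, phenacetin 100 μM, mephenytoin 100 μM). Relative enzyme activity came from metabolite formation versus DMSO control.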

CYP2C19 = biological target: T2, CYP2C19 (Homo sapiens, UniProt P33261); assay: Direct inhibition (DI) of CYP2C19 in human liver microsomes; assay type: in vitro ADME; conditions: probe Mephenytoin, human liver microsomes 0.2 mg/mL, 10 μM compound, read-out: Direct inhibition (DI) 2C19 (Mephenytoin)
T2 construct: A system of 100 μL human liver microsomes; from tissue; host or cells: human liver microsomes
T2 sequence (P33261 whole entry): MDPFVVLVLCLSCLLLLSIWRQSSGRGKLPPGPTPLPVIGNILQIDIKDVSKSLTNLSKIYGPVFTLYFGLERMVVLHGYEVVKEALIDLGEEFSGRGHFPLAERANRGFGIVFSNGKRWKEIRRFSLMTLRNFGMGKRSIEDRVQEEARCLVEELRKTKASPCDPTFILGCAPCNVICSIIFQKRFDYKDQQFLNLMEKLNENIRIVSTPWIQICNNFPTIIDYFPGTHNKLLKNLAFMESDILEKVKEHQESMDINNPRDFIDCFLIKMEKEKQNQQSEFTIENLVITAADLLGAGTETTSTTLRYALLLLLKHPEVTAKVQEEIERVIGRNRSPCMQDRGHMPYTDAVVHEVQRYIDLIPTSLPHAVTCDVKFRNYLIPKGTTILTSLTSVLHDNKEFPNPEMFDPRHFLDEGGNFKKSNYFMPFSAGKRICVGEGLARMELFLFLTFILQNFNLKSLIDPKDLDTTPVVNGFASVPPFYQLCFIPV
Procedure, shortened: as §1

CYP1A2 = biological target: T3, CYP1A2 (Homo sapiens, UniProt P05177); assay: Direct inhibition (DI) of CYP1A2 in human liver microsomes; assay type: in vitro ADME; conditions: probe Phenacetin, human liver microsomes 0.2 mg/mL, 10 μM compound, read-out: Direct inhibition (DI) 1A2 (Phenacetin)
T3 construct: A system of 100 μL human liver microsomes; from tissue; host or cells: human liver microsomes
T3 sequence (P05177 1-516): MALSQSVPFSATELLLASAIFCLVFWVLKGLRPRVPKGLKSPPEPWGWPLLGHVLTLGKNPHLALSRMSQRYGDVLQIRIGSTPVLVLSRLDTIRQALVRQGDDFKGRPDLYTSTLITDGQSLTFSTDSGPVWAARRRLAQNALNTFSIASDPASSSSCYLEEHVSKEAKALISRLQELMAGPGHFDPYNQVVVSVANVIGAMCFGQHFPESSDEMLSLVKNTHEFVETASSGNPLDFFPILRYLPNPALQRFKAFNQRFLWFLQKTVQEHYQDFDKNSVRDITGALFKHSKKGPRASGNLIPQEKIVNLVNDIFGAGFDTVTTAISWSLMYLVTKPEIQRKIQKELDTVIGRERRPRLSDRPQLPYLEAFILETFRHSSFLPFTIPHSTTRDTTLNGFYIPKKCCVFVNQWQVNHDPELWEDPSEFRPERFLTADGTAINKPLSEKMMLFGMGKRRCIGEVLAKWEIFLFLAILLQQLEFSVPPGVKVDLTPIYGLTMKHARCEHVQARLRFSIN
Procedure, shortened: as §1

CYP2D6 = biological target: T4, CYP2D6 (Homo sapiens, UniProt P10635); assay: Direct inhibition (DI) of CYP2D6 in human liver microsomes; assay type: in vitro ADME; conditions: probe Dextromethorphan, human liver microsomes 0.2 mg/mL, 10 μM compound, read-out: Direct inhibition (DI) 2D6 (Dextromethorphan)
T4 construct: A system of 100 μL human liver microsomes; from tissue; host or cells: human liver microsomes
T4 sequence (P10635 whole entry): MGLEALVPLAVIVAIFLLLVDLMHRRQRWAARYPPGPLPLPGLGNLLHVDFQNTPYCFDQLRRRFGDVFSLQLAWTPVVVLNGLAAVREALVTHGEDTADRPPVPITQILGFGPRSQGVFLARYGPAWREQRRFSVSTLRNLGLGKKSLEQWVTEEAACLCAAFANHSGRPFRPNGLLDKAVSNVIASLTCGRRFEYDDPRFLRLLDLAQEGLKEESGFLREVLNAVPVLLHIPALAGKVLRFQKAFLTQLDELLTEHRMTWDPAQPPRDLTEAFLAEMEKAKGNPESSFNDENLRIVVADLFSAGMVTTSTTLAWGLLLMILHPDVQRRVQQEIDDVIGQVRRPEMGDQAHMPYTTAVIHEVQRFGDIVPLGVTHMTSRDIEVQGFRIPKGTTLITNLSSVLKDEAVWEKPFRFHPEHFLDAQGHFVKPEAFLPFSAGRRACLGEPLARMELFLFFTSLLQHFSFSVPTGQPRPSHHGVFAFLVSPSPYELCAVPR
Procedure, shortened: as §1

[1] = In vivo pharmacokinetics study in cynomolgus monkeys; conditions: cynomolgus monkeys, oral 15 mg/kg
Method: 6 male cynomolgus monkeys (purchased from Guangxi Guidong Primate Development Experiment Co., Ltd., certificate No. SCXK (Guangxi) 2013-0057) were divided into 2 groups with 3 in each group, and all of the animals were fasted for about 12 hours before administration. One group was orally administrated with 15 mg/kg of the final product of Embodiment 22 (deionized water was added, followed by sonication for 30 minutes and stirring for 3 minutes, and a clear pale yellow dosing solution with a concentration of 3 mg/mL was prepared); one group was administrated with 15 mg/kg of Pyrotinib (deionized water was added, followed by sonication for 30 minutes and stirring for 4 minutes, and a clear yellow dosing solution with a concentration of 3 mg/mL was prepared). Blood samples were collected before administration and at 15, 30, 60, 90, 120, 150, 180, 240, 360, 480, 720 and 1440 minutes respectively after administration.
(§2) 1.0 mL of blood was collected from each animal through jugular vein puncture at each time point and heparin sodium was used for anticoagulation. The blood samples were collected and placed in labeled centrifuge tubes, and plasma was centrifuged (centrifugation conditions: 3500 rpm, 10 minutes, 2-8° C.). To 50 μL of plasma sample was added 300 μL of acetonitrile containing internal standard (Propranolol, 25 ng/mL) to precipitate the protain. After vortexing for 10 minutes and centrifuging at 6000 g for 20 minutes, 100 μL of supernatant was taken and injected into a 96-well plate. The drug concentration in plasma was determined by UPLC/MS-MS.

[2] = test system: HER2 overexpressing human gastric cancer NCI-N87 nude mice xenograft; assay: HER2 overexpressing human gastric cancer NCI-N87 nude mice xenograft model; assay type: in vivo; conditions: 10 mg/kg, continuous oral administration for 21 days
Description: We have established nude mice xenograft model for HER2 overexpression.

[3] = In vivo pharmacokinetics study in beagle dogs; conditions: beagle dogs, oral 15 mg/kg
Method: 6 male beagle dogs (purchased from Beijing Marshall Biotechnology Co., Ltd., certificate No. SCXK (Beijing) 2016-0001) were divided into 2 groups with 3 dogs in each group, and all of the animals were fasted for about 12 hours before administration. One group was orally administrated with 15 mg/kg of the final product of Embodiment 22 (deionized water was added, followed by sonication for 29 minutes and stirring for 4 minutes, and a clear pale yellow dosing solution with a concentration of 3 mg/mL was prepared); the other group was orally administrated with 15 mg/kg of Pyrotinib (deionized water was added, followed by sonication for 28 minutes and stirring for 5 minutes, and a clear yellow dosing solution with a concentration of 3 mg/mL was prepared). Blood samples were collected before administration and at 15, 30, 60, 90, 120, 150, 180, 240, 360, 480, 720 and 1440 minutes respectively after administration.
as §2

CYP2C9 = biological target: T5, CYP2C9 (Homo sapiens, UniProt P11712); assay: Direct inhibition (DI) of CYP2C9 in human liver microsomes; assay type: in vitro ADME; conditions: probe Diclofenac, human liver microsomes 0.2 mg/mL, 10 μM compound, read-out: Direct inhibition (DI) 2C9 (Diclofenac)
T5 construct: A system of 100 μL human liver microsomes; from tissue; host or cells: human liver microsomes
T5 sequence (P11712 whole entry): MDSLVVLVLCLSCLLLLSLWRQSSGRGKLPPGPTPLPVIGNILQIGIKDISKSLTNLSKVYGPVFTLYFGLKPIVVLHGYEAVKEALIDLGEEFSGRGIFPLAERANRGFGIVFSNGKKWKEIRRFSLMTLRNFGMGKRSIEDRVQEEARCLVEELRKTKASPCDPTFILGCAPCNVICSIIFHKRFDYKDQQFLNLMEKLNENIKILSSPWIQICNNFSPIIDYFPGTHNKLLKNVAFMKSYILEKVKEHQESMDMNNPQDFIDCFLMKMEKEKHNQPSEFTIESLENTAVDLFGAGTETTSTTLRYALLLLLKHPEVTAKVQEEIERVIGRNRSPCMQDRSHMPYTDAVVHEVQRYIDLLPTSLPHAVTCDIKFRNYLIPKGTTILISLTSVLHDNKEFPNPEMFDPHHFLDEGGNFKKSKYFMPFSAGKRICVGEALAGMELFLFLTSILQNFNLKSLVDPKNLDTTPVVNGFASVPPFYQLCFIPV
Procedure, shortened: as §1

CCOc1cc2ncc(C#N)c(Nc3ccc(OCc4ccccn4)c(Cl)c3)c2cc1NC(=O)/C=C/[C@H]1CCCN1C [Pyrotinib, reference compound]
inhibition at 20 min, 10 µM (CYP3A4; probe Midazolam, read-out: Direct inhibition (DI) 3A4 (Midazolam)): 15%
inhibition at 20 min, 10 µM (CYP3A4; probe Testosterone, read-out: Direct inhibition (DI) 3A4 (testosterone)): 22%
inhibition at 20 min, 10 µM (CYP2C19): 43%
inhibition at 20 min, 10 µM (CYP1A2): 22%
inhibition at 20 min, 10 µM (CYP2D6): 55%
oral absorption peak concentration [1]: 56.42 ng/mL
AUC ([1]; male, cynomolgus monkey, plasma, read-out: AUC): 325 ng·h/mL
tumor volume inhibition rate (GI %) [2]: 127.0%
peak oral absorption concentration [3]: 146.2 ng/mL
AUC ([3]; male, dog, plasma, read-out: AUC): 1620 ng·h/mL
inhibition at 20 min, 10 µM (CYP2C9): 26%
